Measured values from patent US4704403A, “3-(2,2,2-trisubstituted hydrazinium) propionates” (priority 1983, dated 1987).

Columns and labels:
[1] = tested on: spontaneously hypertensive rats of the Akamoto-Aoki line; test: Systolic arterial pressure of spontaneously hypertensive rats upon a repeated peroral administration; format: in vivo
Description: Thus, after a four-days course of administration (once a day, per os) of the compounds according to the present invention an essential reduction of the arterial pressure in the test animals is observed which is not returned to the initial level even an expiration of four days after discontinuation of the preparation administration, whereas the hypotensive effect of nifedipine is manifested for only 8 hours.

[2] = tested on: arrhythmia caused by introduction of calcium chloride; test: Antiarrhythmic activity on the model of arrhythmia caused by calcium chloride (antagonism towards calcium); format: in vivo, mice; conditions: for Dose of calcium chloride causing arrhythmia: control 85.0; for Dose of calcium chloride causing heart arrest: control 100.0
Description: In experiments on white mice with a mass of 18-25 g narcotized with urethane an electrocardiogram was recorded in the second standard lead. A 2% solution of calcium chloride was introduced into the tail vein at a constant rate (0.01 ml for 2 seconds). The dose of calcium chloride causing arrhythmia and the dose causing heart arrest were determined. In experimental groups the test compounds were administered 20-40 minutes prior to the beginning of the experiment intraperitoneally.

white mice = test: Acute toxicity upon intraperitoneal administration to white mice; format: in vivo; conditions: i.p.
Description: (§1) The acute toxicity of the compounds according to the present invention was studied on white mice of both sexes with a mass of 20-25 g. A saturated aqueous solution of the compounds or a suspension in Tween-80 was administered to the animals intraperitoneally. The observation over the animals was carried out for 14 days. The results obtained were processed following the Litchfield-Wilkoxon method. As it follows from the data shown in Table 5 hereinbelow, the studied compounds have a very low acute toxicity, thus providing a large spectrum of the therapeutic effect.

[3] = as above; format: in vivo; conditions: mouse, in vivo, ip, 14 days observation, average values with confidential limits at P=0.05
Description: as §1

[4] = tested on: spontaneously hypertensive rats of the Akamoto-Aoki line; test: Hypotensive activity on spontaneously hypertensive rats at a single peroral administration; format: in vivo; conditions: for Systolic arterial pressure: ethyl 40 mg/kg (initial 198), benzyl 40 mg/kg (initial 196)
[5] = tested on: hypertensive male rats of the Akamoto-Aoki line; test: Variation of arterial pressure upon intraperitoneal administration to hypertensive rats; format: in vivo
Description: The study of hypotensive properties of the compounds of this invention has been carried out of hypertensive male rats of the Akamoto-Aoki line aged 25-30 weeks. The animals were divided into groups (7-10 rats in each) and for 2 weeks before the beginning of the experiment they were subjected to an every-day training for adaptation to the unit for measurements of the arterial pressure. The systolic and diastolic arterial pressure were measured indirectly on the tail artery. The level of the arterial pressure prior to administration of the test compounds was measured by way of a triple determination thereof--2 days, one day and right before the administration of the preparation. The compounds were administered intraperitoneally in the form of a 2.5% aqueous solution or a 2.5% suspension in Twin-80 in the dose of 50 mg/kg. The measurement of the arterial pressure was effected 30 minutes, 1, 2, 3 and 4 hours and in some cases 24 hours after the administration of the preparation. For a number of compounds featuring a high efficiency, also determined was the dose causing reduction of the arterial pressure by 30% as compared with the starting level (ED30). The statistical processing of the data obtained was carried out using the Student certainty criterion.

[6] = tested on: adrenaline-caused arrhythmia; test: Adrenaline-caused arrhythmia in narcotized guinea pigs; format: in vivo; conditions: for ED50: Cavia porcellus, iv, intravenously, dose giving antiarrhythmic effect in 50% of the experiments
Description: A further study of the antiarrhythmic activity of the compounds according to the present invention was connected with the determination of their effect on experimental arrhythmia induced by adrenaline.
Guinea pigs of both sexes with a mass of 400-700 g were narcotized with urethane (1,500 mg/kg intraperitoneally) The standard second-lead electrocardiogram was recorded. Arrhythmia was caused by a rapid injection (intravenously) of adrenaline in the dose of […]. To find out the protective antiarrhythmia effect of the compounds according to the present invention, the number of animals in which the total number of ectopic contractions was reduced by 50% and more as compared to the control experiments was recorded. […] The results obtained in this study of the antiarrhythmic properties of some of the compounds according to the present invention and novocainamide on the adrenaline model of arrhythmia are shown in Table 7.

[7] = after four-days p.o. course, benzyl 40 mg/kg, allyl 50 mg/kg, nifedipine dose not given
[8] = p.o. once a day, benzyl 40 mg/kg, allyl 50 mg/kg, nifedipine dose not given
[9] = p.o., benzyl 40 mg/kg, allyl 50 mg/kg, nifedipine dose not given
[10] = 1 hour after single p.o., ethyl 40 mg/kg, benzyl 40 mg/kg
[11] = 3 hours after single p.o., allyl 50 mg/kg (initial 184)
[12] = 3 hours after single p.o., ethyl 40, allyl 50, benzyl 40 mg/kg
[13] = 5 hours after single p.o., allyl 50 mg/kg (initial 184)
[14] = 5 hours after single p.o., ethyl 40, allyl 50, benzyl 40 mg/kg
[15] = 24 hours after single p.o., allyl 50 mg/kg (initial 184)
[16] = 24 hours after single p.o., ethyl 40, allyl 50, benzyl 40 mg/kg
[17] = 30 minutes, 50 mg/kg i.p. (nifedipine 1 mg/kg i.p.)
[18] = 1 hour, 50 mg/kg i.p. (nifedipine 1 mg/kg i.p.)
[19] = 2 hours, 50 mg/kg i.p. (nifedipine 1 mg/kg i.p.)
[20] = 4 hours, 50 mg/kg i.p. (nifedipine 1 mg/kg i.p.)

C[N+](C)(Cc1ccccc1)NCCC(=O)[O-] [3-(2,2-dimethyl-2-benzylhydrazinium)propionate]
Systolic arterial pressure, 5th day [1, 7]: 166 mm Hg
Systolic arterial pressure, 8th day [1, 7]: 157 mm Hg
Systolic arterial pressure, 10th day [1, 7]: 177.8 mm Hg
Systolic arterial pressure, 1st day after administration ([1]; p.o. once a day, benzyl 40 mg/kg (initial 195.8), allyl 50 mg/kg (initial 176.6), nifedipine dose not given (initial 184.0)): 148.6 mm Hg
Systolic arterial pressure, 2nd day before administration [1, 8]: 167.8 mm Hg
Systolic arterial pressure, 3rd day after administration [1, 8]: 157.4 mm Hg
Systolic arterial pressure, 4th day after administration [1, 8]: 155 mm Hg
Systolic arterial pressure, 4th day before administration [1, 8]: 156 mm Hg
Systolic arterial pressure, 3rd day before administration ([1]; p.o. once a day, benzyl 40 mg/kg, nifedipine dose not given): 153 mm Hg
Percent in parentheses (change of systolic pressure from initial), 1st day after administration [1, 9]: 24%
Percent in parentheses (change of systolic pressure from initial), 2nd day before administration [1, 9]: 14%
Percent in parentheses (change of systolic pressure from initial), 3rd day after administration [1, 9]: 20%
Percent in parentheses (change of systolic pressure from initial), 4th day after administration [1, 9]: 21%
Percent in parentheses (change of systolic pressure from initial), 4th day before administration [1, 9]: 20%
Percent in parentheses (change of systolic pressure from initial), 5th day [1, 9]: 15%
Percent in parentheses (change of systolic pressure from initial), 8th day [1, 9]: 20%
Percent in parentheses (change of systolic pressure from initial), 10th day [1, 9]: 9%
Percent in parentheses (change of systolic pressure from initial), 3rd day before administration ([1]; p.o., benzyl 40 mg/kg, nifedipine dose not given): 22%
Dose of calcium chloride causing arrhythmia ([2]; compound dose 5 mg/kg i.p.): 90.9
Dose of calcium chloride causing heart arrest ([2]; compound dose 5 mg/kg i.p.): 103.0
Dose of calcium chloride causing arrhythmia ([2]; compound dose 25 mg/kg i.p.): 111.0
Dose of calcium chloride causing heart arrest ([2]; compound dose 25 mg/kg i.p.): 112.0
Relative toxicity with respect to quinidine (LD50 / LD50 of quinidine) (white mice): 51.9
LD50 at 336 h [3]: 8100 mg/kg
Systolic arterial pressure ([4]; 1 hour after single p.o.): 155 mm Hg
Systolic arterial pressure, percent in parentheses (decrease from initial) [4, 10]: 21%
Systolic arterial pressure [4, 11]: 150 mm Hg
Systolic arterial pressure, percent in parentheses (decrease from initial) [4, 12]: 23%
Systolic arterial pressure [4, 13]: 153 mm Hg
Systolic arterial pressure, percent in parentheses (decrease from initial) [4, 14]: 22%
Systolic arterial pressure [4, 15]: 168 mm Hg
Systolic arterial pressure, percent in parentheses (decrease from initial) [4, 16]: 14%
Average variation of the diastolic arterial pressure [5, 17]: -14 % of the initial
Average variation of the systolic arterial pressure [5, 17]: -14 % of the initial
Average variation of the diastolic arterial pressure [5, 18]: -14 % of the initial
Average variation of the systolic arterial pressure [5, 18]: -14 % of the initial
Average variation of the diastolic arterial pressure [5, 19]: -21 % of the initial
Average variation of the systolic arterial pressure [5, 19]: -15 % of the initial
Average variation of the diastolic arterial pressure [5, 20]: -21 % of the initial
Average variation of the systolic arterial pressure [5, 20]: -14 % of the initial
Average variation of the diastolic arterial pressure ([5]; 24 hours, 50 mg/kg i.p.): -15 % of the initial
Average variation of the systolic arterial pressure ([5]; 24 hours, 50 mg/kg i.p.): -9 % of the initial

CC[N+](C)(C)NCCC(=O)[O-] [3-(2,2-dimethyl-2-ethylhydrazinium)propionate monohydrate]
Dose of calcium chloride causing arrhythmia ([2]; compound dose 5 mg/kg i.p.): 83.0
Dose of calcium chloride causing heart arrest ([2]; compound dose 5 mg/kg i.p.): 95.0
Dose of calcium chloride causing arrhythmia ([2]; compound dose 25 mg/kg i.p.): 91.0
Dose of calcium chloride causing heart arrest ([2]; compound dose 25 mg/kg i.p.): 98.0
Efficiency (animals with ectopic contractions reduced by 50% and more) ([6]; 3.0 mg/kg intravenously): 1/4
Efficiency (animals with ectopic contractions reduced by 50% and more) ([6]; 10.0 mg/kg intravenously): 2/4
Efficiency (animals with ectopic contractions reduced by 50% and more) ([6]; 20.0 mg/kg intravenously): 4/5
ED50 [6]: 8.2 mg/kg
Relative toxicity with respect to quinidine (LD50 / LD50 of quinidine) (white mice): 14.7
LD50 at 336 h [3]: 2300 mg/kg
Systolic arterial pressure ([4]; 1 hour after single p.o.): 185 mm Hg
Systolic arterial pressure, percent in parentheses (decrease from initial) [4, 10]: 7%
Systolic arterial pressure [4, 11]: 190 mm Hg
Systolic arterial pressure, percent in parentheses (decrease from initial) [4, 12]: 4%
Systolic arterial pressure [4, 13]: 193 mm Hg
Systolic arterial pressure, percent in parentheses (decrease from initial) [4, 14]: 3%
Systolic arterial pressure [4, 15]: 191 mm Hg
Systolic arterial pressure, percent in parentheses (decrease from initial) [4, 16]: 4%
Average variation of the diastolic arterial pressure [5, 17]: -2 % of the initial
Average variation of the systolic arterial pressure [5, 17]: -5 % of the initial
Average variation of the diastolic arterial pressure [5, 18]: -17 % of the initial
Average variation of the systolic arterial pressure [5, 18]: -11 % of the initial
Average variation of the diastolic arterial pressure [5, 19]: -22 % of the initial
Average variation of the systolic arterial pressure [5, 19]: -13 % of the initial
Average variation of the diastolic arterial pressure [5, 20]: -23 % of the initial
Average variation of the systolic arterial pressure [5, 20]: -18 % of the initial
Average variation of the diastolic arterial pressure ([5]; 24 hours, 50 mg/kg i.p.): -25 % of the initial
Average variation of the systolic arterial pressure ([5]; 24 hours, 50 mg/kg i.p.): -18 % of the initial

C[N+](C)(CCc1ccccc1)NCCC(=O)[O-] [3-(2,2-dimethyl-2-phenylethylhydrazinium)propionate dihydrate]
Dose of calcium chloride causing arrhythmia ([2]; compound dose 5 mg/kg i.p.): 88.7
Dose of calcium chloride causing heart arrest ([2]; compound dose 5 mg/kg i.p.): 115.6
Dose of calcium chloride causing arrhythmia ([2]; compound dose 15 mg/kg i.p.): 110.5
Dose of calcium chloride causing heart arrest ([2]; compound dose 15 mg/kg i.p.): 142.5
Efficiency (animals with ectopic contractions reduced by 50% and more) ([6]; 10.0 mg/kg intravenously): 3/5
Efficiency (animals with ectopic contractions reduced by 50% and more) ([6]; 20.0 mg/kg intravenously): 4/5
ED50 [6]: 7.8 mg/kg
Relative toxicity with respect to quinidine (LD50 / LD50 of quinidine) (white mice): 11.8
LD50 at 336 h [3]: 1850 mg/kg

CCN(CC)CCNC(=O)c1ccc(N)cc1 [Novocainamide, reference compound]
Dose of calcium chloride causing arrhythmia ([2]; compound dose 10 mg/kg i.p.): 116.0
Dose of calcium chloride causing heart arrest ([2]; compound dose 10 mg/kg i.p.): 120.0
Dose of calcium chloride causing arrhythmia ([2]; compound dose 30 mg/kg i.p.): 127.0
Dose of calcium chloride causing heart arrest ([2]; compound dose 30 mg/kg i.p.): 138.0
Efficiency (animals with ectopic contractions reduced by 50% and more) ([6]; 2.5 mg/kg intravenously): 1/5
Efficiency (animals with ectopic contractions reduced by 50% and more) ([6]; 5.0 mg/kg intravenously): 1/5
Efficiency (animals with ectopic contractions reduced by 50% and more) ([6]; 10.0 mg/kg intravenously): 3/5
Efficiency (animals with ectopic contractions reduced by 50% and more) ([6]; 20.0 mg/kg intravenously): 5/5
ED50 [6]: 7.6 mg/kg
Relative toxicity with respect to quinidine (LD50 / LD50 of quinidine) (white mice): 1.85
LD50 at 336 h [3]: 290 mg/kg
